These results are taken from patent US20260078120A1, “SUBSTITUTED PYRIDOPYRIMIDINONES” (MIRATI THERAPEUTICS, INC., priority 2022, published 2026).

Where two headings read alike, the source gives them in different places. Bounds are passed on as bounds.

For experiment [1], the system named is SKBR3 (PI3Kα wild type) cells. The experiment in a line: CellTiter-Glo 2.0 luminescent cell viability assay, 72 hours, SKBR3 cells. The class given is cell-based. To be noted: Homo sapiens, SK-BR-3, 72 h, SKBR3 (PI3Kα wild type) cells, CellTiter-Glo, approximately 72 hours; read-out: SKBR3 (WT) Viability IC50. The procedure, abridged:
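Viability measured via CTG luminescence following roughly 72 hours of compound exposure at 37° C. Dosing used a 10 um starting concentration diluted 1:4 over 10 points; percent-of-vehicle data fitted with a variable-slope four-parameter model for IC50.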

The subject of experiment [2] is T47D (PI3Kα H1047R mutant) cells. Nature of the experiment: CellTiter-Glo 2.0 luminescent cell viability assay, 72 hours, T47D cells. The class given is cell-based. To be noted: T47D (PI3Kα H1047R mutant) cells, CellTiter-Glo, approximately 72 hours, read-out: T47D (H1047R mutant) Viability IC50. The essentials:
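Cells seeded at 1000 per well overnight were dosed with a 10-concentration, 1:4 series starting at 10 µM and incubated ~72 h at 37° C. Viability was read by CellTiter-Glo 2.0 luminescence after 30 min at room temperature. IC50 came from four-parameter fits of percent vehicle control.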
(Cellular ATP, detected with luciferase, serves as a proxy for viable cell number.)

As usually defined, the IC50 is the concentration that gives 50% inhibition. Regarding `Cc1cc([C@@H](C)Nc2ccccc2C(=O)O)c2nc(N3CCN(c4ccccc4C)CC3)c(C)c(=O)n2c1` [Example 11-267, (R)-2-((1-(3,7-dimethyl-4-oxo-2-(4-(o-tolyl)piperazin-1-yl)-4H-pyrido[1,2-a]pyrimidin-9-yl)ethyl)amino)benzoic acid], the IC50 in experiment [1] is more than 10 µM; in experiment [2] (Homo sapiens, T47D, 72 h) it was 0.236 µM.
Take `Cc1cc([C@@H](C)Nc2ccccc2C(=O)O)c2nc(N3CCN(c4ccccc4)CC3C)c(C)c(=O)n2c1` (stereo partly drawn) [Example 11-268, 2-(((1R)-1-(3,7-dimethyl-2-(2-methyl-4-phenylpiperazin-1-yl)-4-oxo-4H-pyrido[1,2-a]pyrimidin-9-yl)ethyl)amino)benzoic acid]: the concentration for half-maximal inhibition (IC50) is more than 10 µM in experiment [1] and 0.362 µM in experiment [2] (Homo sapiens, T47D, 72 h).
Turning to `Cc1cc([C@@H](C)Nc2ccccc2C(=O)O)c2nc(N3CCN(c4ccc(C#N)cc4)CC3C)c(C)c(=O)n2c1` (stereo partly drawn) [Example 11-269, 2-(((1R)-1-(2-(4-(4-cyanophenyl)-2-methylpiperazin-1-yl)-3,7-dimethyl-4-oxo-4H-pyrido[1,2-a]pyrimidin-9-yl)ethyl)amino)benzoic acid], the IC50 was more than 10 µM in experiment [1] and 0.11 µM in experiment [2].
`Cc1cc([C@@H](C)Nc2ccccc2C(=O)O)c2nc(N3CCN(c4ccc(C#N)cc4)[C@H](C)C3)c(C#N)c(=O)n2c1` [Example 11-270, 2-(((R)-1-(3-cyano-2-((R)-4-(4-cyanophenyl)-3-methylpiperazin-1-yl)-7-methyl-4-oxo-4H-pyrido[1,2-a]pyrimidin-9-yl)ethyl)amino)benzoic acid]: the IC50 was more than 10 µM in experiment [1] and 0.227 µM in experiment [2] (Homo sapiens, T47D, 72 h).
Take `Cc1cc([C@@H](C)Nc2ccccc2C(=O)O)c2nc(N3CCN(c4ccc(C#N)cc4)C(C)C3)c(C#N)c(=O)n2c1` (stereo partly drawn) [Example 11-271, 2-(((1R)-1-(3-cyano-2-(4-(4-cyanophenyl)-3-methylpiperazin-1-yl)-7-methyl-4-oxo-4H-pyrido[1,2-a]pyrimidin-9-yl)ethyl)amino)benzoic acid]: the IC50 was found to be 7.1 µM in experiment [1] and 0.118 µM in experiment [2] (Homo sapiens, T47D, 72 h).
`Cc1cc([C@@H](C)Nc2ccccc2C(=O)O)c2nc(N3CCN(c4ccc(C#N)cc4)CC3)c(C#N)c(=O)n2c1` [Example 11-272, (R)-2-((1-(3-cyano-2-(4-(4-cyanophenyl)piperazin-1-yl)-7-methyl-4-oxo-4H-pyrido[1,2-a]pyrimidin-9-yl)ethyl)amino)benzoic acid]: the IC50 in experiment [1] is more than 10 µM; in experiment [2] (Homo sapiens, T47D, 72 h) it was 0.141 µM.
Consider `Cc1cc([C@@H](C)Nc2ccccc2C(=O)O)c2nc(N3CCN(c4ccccc4)CC3)c(C)c(=O)n2c1` [Example 11-273, (R)-2-((1-(3,7-dimethyl-4-oxo-2-(4-phenylpiperazin-1-yl)-4H-pyrido[1,2-a]pyrimidin-9-yl)ethyl)amino)benzoic acid], for which the IC50 in experiment [1] worked out at 7.39 µM; in experiment [2] (Homo sapiens, T47D, 72 h), 3.1 µM.
On the same counts, the results for `Cc1cc([C@@H](C)Nc2ccncc2C(=O)O)c2nc(N3Cc4ccccc4C3)c(C#N)c(=O)n2c1` [Example 11-274, (R)-4-((1-(3-cyano-2-(isoindolin-2-yl)-7-methyl-4-oxo-4H-pyrido[1,2-a]pyrimidin-9-yl)ethyl)amino)nicotinic acid] are more than 10 µM and more than 10 µM.
For `Cc1cc([C@@H](C)Nc2ccncc2C(=O)O)c2nc(N3Cc4ccccc4C3)c(C)c(=O)n2c1` [Example 11-275, (R)-4-((1-(2-(isoindolin-2-yl)-3,7-dimethyl-4-oxo-4H-pyrido[1,2-a]pyrimidin-9-yl)ethyl)amino)nicotinic acid], the IC50 in experiment [1] was more than 10 µM; in experiment [2] (Homo sapiens, T47D, 72 h), more than 10 µM.
On to `Cc1cc([C@@H](C)Nc2cc(Cl)nnc2C(=O)O)c2nc(N3Cc4ccccc4C3)c(C)c(=O)n2c1` [Example 11-276, (R)-6-chloro-4-((1-(2-(isoindolin-2-yl)-3,7-dimethyl-4-oxo-4H-pyrido[1,2-a]pyrimidin-9-yl)ethyl)amino)pyridazine-3-carboxylic acid], for which the IC50 in experiment [1] was more than 10 µM; in experiment [2] (Homo sapiens, T47D, 72 h), more than 10 µM.
With `Cc1cc([C@@H](C)Nc2ccnnc2C(=O)O)c2nc(N3Cc4ccccc4C3)c(C)c(=O)n2c1` [Example 11-277, (R)-4-((1-(2-(isoindolin-2-yl)-3,7-dimethyl-4-oxo-4H-pyrido[1,2-a]pyrimidin-9-yl)ethyl)amino)pyridazine-3-carboxylic acid], the IC50 was more than 10 µM in experiment [1] and 4.19 µM in experiment [2] (Homo sapiens, T47D, 72 h).
In the case of `Cc1cc([C@@H](C)Nc2cccn(C)c2=O)c2nc(N3CCCCC3)c(C)c(=O)n2c1` [Example 11-278, (R)-3,7-dimethyl-9-(1-((1-methyl-2-oxo-1,2-dihydropyridin-3-yl)amino)ethyl)-2-(piperidin-1-yl)-4H-pyrido[1,2-a]pyrimidin-4-one], the concentration for half-maximal inhibition (IC50) in experiment [1] was more than 10 µM; in experiment [2] (Homo sapiens, T47D, 72 h), 8.35 µM.
With `Cc1cc([C@@H](C)Nc2ccc(Cl)nc2C(=O)O)c2nc(N3CCC(C)(C)CC3)c(C)c(=O)n2c1` [Example 11-279, (R)-6-chloro-3-((1-(2-(4,4-dimethylpiperidin-1-yl)-3,7-dimethyl-4-oxo-4H-pyrido[1,2-a]pyrimidin-9-yl)ethyl)amino)picolinic acid], the IC50 in experiment [1] is more than 10 µM; in experiment [2] (Homo sapiens, T47D, 72 h), 0.192 µM.
In the same order, the values of `Cc1cc([C@@H](C)Nc2ccc(Cl)cc2C(=O)O)c2nc(N3Cc4ccccc4C3)c(C)c(=O)n2c1` [Example 11-280, (R)-5-chloro-2-((1-(2-(isoindolin-2-yl)-3,7-dimethyl-4-oxo-4H-pyrido[1,2-a]pyrimidin-9-yl)ethyl)amino)benzoic acid] are more than 10 µM and 0.383 µM.
In the case of `Cc1cc([C@@H](C)Nc2ccc(Cl)cc2C(=O)O)c2nc(N3CCCCC3)c(C)c(=O)n2c1` [Example 11-281, (R)-5-chloro-2-((1-(3,7-dimethyl-4-oxo-2-(piperidin-1-yl)-4H-pyrido[1,2-a]pyrimidin-9-yl)ethyl)amino)benzoic acid], the IC50 was more than 10 µM in experiment [1] and 0.427 µM in experiment [2] (Homo sapiens, T47D, 72 h).
On the same counts, the results for `Cc1cc([C@@H](C)Nc2ccccc2C(=O)O)c2nc(NC34CC(CO)(C3)C4)c(C#N)c(=O)n2c1` [Example 11-282, (R)-2-((1-(3-cyano-2-((3-(hydroxymethyl)bicyclo[1.1.1]pentan-1-yl)amino)-7-methyl-4-oxo-4H-pyrido[1,2-a]pyrimidin-9-yl)ethyl)amino)benzoic acid] are more than 10 µM and 1.65 µM.
Turning to `Cc1cc([C@@H](C)Nc2ccccc2C(=O)O)c2nc(N3CCN(S(C)(=O)=O)CC3)c(C#N)c(=O)n2c1` [Example 11-283, (R)-2-((1-(3-cyano-7-methyl-2-(4-(methylsulfonyl)piperazin-1-yl)-4-oxo-4H-pyrido[1,2-a]pyrimidin-9-yl)ethyl)amino)benzoic acid], the IC50 in experiment [1] is more than 10 µM; in experiment [2] (Homo sapiens, T47D, 72 h), 7.17 µM.
Regarding `Cc1cc([C@@H](C)Nc2ccccc2C(=O)O)c2nc(N3CCNC(=O)C3)c(C#N)c(=O)n2c1` [Example 11-284, (R)-2-((1-(3-cyano-7-methyl-4-oxo-2-(3-oxopiperazin-1-yl)-4H-pyrido[1,2-a]pyrimidin-9-yl)ethyl)amino)benzoic acid], the IC50 was more than 10 µM in experiment [1] and more than 10 µM in experiment [2] (Homo sapiens, T47D, 72 h).
Turning to `Cc1cc([C@@H](C)Nc2ccccc2C(=O)O)c2nc(N3CCC4(CCO4)C3)c(C#N)c(=O)n2c1` (stereo partly drawn) [Example 11-285, 2-(((1R)-1-(3-cyano-7-methyl-4-oxo-2-(1-oxa-6-azaspiro[3.4]octan-6-yl)-4H-pyrido[1,2-a]pyrimidin-9-yl)ethyl)amino)benzoic acid], the concentration for half-maximal inhibition (IC50) is more than 10 µM in experiment [1] and more than 10 µM in experiment [2] (Homo sapiens, T47D, 72 h).
For the compound `Cc1cc([C@@H](C)Nc2ccccc2C(=O)O)c2nc(N3Cc4ccncc4C3)c(C#N)c(=O)n2c1` [Example 11-286, (R)-2-((1-(3-cyano-2-(1,3-dihydro-2H-pyrrolo[3,4-c]pyridin-2-yl)-7-methyl-4-oxo-4H-pyrido[1,2-a]pyrimidin-9-yl)ethyl)amino)benzoic acid], the IC50 in experiment [1] was more than 10 µM; in experiment [2] (Homo sapiens, T47D, 72 h), 0.284 µM.
Regarding `Cc1cc([C@@H](C)Nc2ccccc2C(=O)O)c2nc(N3Cc4ccccc4C3CO)c(C#N)c(=O)n2c1` (stereo partly drawn) [Example 11-288, 2-(((1R)-1-(3-cyano-2-(1-(hydroxymethyl)isoindolin-2-yl)-7-methyl-4-oxo-4H-pyrido[1,2-a]pyrimidin-9-yl)ethyl)amino)benzoic acid], the IC50 was more than 10 µM in experiment [1] and 0.721 µM in experiment [2] (Homo sapiens, T47D, 72 h).
With `Cc1cc([C@@H](C)Nc2ccccc2C(=O)O)c2nc(N3CCC4(CCC(=O)N4)C3)c(C#N)c(=O)n2c1` (stereo partly drawn) [Example 11-289, 2-(((1R)-1-(3-cyano-7-methyl-4-oxo-2-(2-oxo-1,7-diazaspiro[4.4]nonan-7-yl)-4H-pyrido[1,2-a]pyrimidin-9-yl)ethyl)amino)benzoic acid], the IC50 is more than 10 µM in experiment [1] and 1.87 µM in experiment [2] (Homo sapiens, T47D, 72 h).
Take `Cc1c(N2Cc3ccccc3C2)nc2c([C@@H](C)Nc3ccccc3C(=O)O)cc(F)cn2c1=O` [Example 11-290, (R)-2-((1-(7-fluoro-2-(isoindolin-2-yl)-3-methyl-4-oxo-4H-pyrido[1,2-a]pyrimidin-9-yl)ethyl)amino)benzoic acid]: the IC50 in experiment [1] was more than 10 µM; in experiment [2] (Homo sapiens, T47D, 72 h), 0.392 µM.
With `Cc1c(N2Cc3ccccc3C2)nc2c([C@@H](C)Nc3ccccc3C(=O)O)cc(Cl)cn2c1=O` [Example 11-291, (R)-2-((1-(7-chloro-2-(isoindolin-2-yl)-3-methyl-4-oxo-4H-pyrido[1,2-a]pyrimidin-9-yl)ethyl)amino)benzoic acid], the IC50 in experiment [1] is more than 10 µM; in experiment [2] (Homo sapiens, T47D, 72 h), 0.117 µM.
